Measurements from ChEMBL document CHEMBL2163338, “Development of triazene prodrugs for ADEPT strategy: new insights into drug delivery system based on carboxypeptidase G2 activation” (Bioorg Med Chem Lett, 2012).

Assays:
[1] = Half life in phosphate buffered saline at pH 7.4; assay type: physicochemical
Pseudomonas sp. [2] = assay: Activity of Pseudomonas sp. carboxypeptidase G2 assessed as compound hydrolysis by Michaelis-Menten plot analysis
[3] = Protein binding in human plasma; assay type: ADME, cell-free; details: read-out: PPB (converted)
Pseudomonas sp. [4] = assay: Ratio of Kcat to Km for Pseudomonas sp. carboxypeptidase G2
Pseudomonas sp. [5] = assay: Activity of Pseudomonas sp. carboxypeptidase G2 assessed as half life of compound hydrolysis by UV spectrophotometric analysis
Albumin = Albumin (Homo sapiens, UniProt P02768); assay: Binding affinity to human serum albumin by HPLC analysis; assay type: ADME; details: isolated protein
Sequence of Albumin (P02768 whole entry): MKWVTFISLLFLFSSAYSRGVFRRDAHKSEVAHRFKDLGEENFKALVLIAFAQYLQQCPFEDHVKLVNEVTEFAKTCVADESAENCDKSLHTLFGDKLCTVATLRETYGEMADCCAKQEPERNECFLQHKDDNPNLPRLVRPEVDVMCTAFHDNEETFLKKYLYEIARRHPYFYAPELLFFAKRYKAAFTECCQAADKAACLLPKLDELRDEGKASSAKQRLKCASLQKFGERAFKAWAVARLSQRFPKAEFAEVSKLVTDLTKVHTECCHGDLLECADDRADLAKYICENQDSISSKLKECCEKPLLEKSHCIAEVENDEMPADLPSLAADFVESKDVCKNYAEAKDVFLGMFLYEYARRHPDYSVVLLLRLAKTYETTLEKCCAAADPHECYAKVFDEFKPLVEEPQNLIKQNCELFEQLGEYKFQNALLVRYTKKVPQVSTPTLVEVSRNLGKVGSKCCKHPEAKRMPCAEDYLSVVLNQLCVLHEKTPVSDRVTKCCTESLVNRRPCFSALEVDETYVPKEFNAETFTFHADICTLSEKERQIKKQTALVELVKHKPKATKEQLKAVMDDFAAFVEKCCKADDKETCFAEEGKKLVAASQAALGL

| Compound | half-life [1] | further results |
| --- | --- | --- |
| Cc1cc(NC(=O)Nc2ccc(N(CCCl)CCCl)cc2)c2ccccc2n1 | 16.5 h | – |
| Cc1ccc(/N=N/N(C)C(=O)N[C@@H](CCC(=O)O)C(=O)O)cc1 | 7.63 h | – |
| CN(/N=N/c1ccc(C(N)=O)cc1)C(=O)N[C@@H](CCC(=O)O)C(=O)O | 0.107 h | – |
| O=C(O)CC[C@H](NC(=O)Nc1ccc(COC(=O)Nc2ccc(N(CCBr)CCBr)cc2N(CCBr)CCBr)cc1)C(=O)O | < 0.0667 h | – |
| CN(C(=O)OCc1ccc(NC(=O)N[C@@H](CCC(=O)O)C(=O)O)cc1)c1ccc(N(CCCl)CCCl)cc1 | – | Km (Pseudomonas sp. [2]): 6.1 µM |
| CN(C(=O)OCc1ccc(NC(=O)N[C@@H](CCC(=O)O)C(=O)O)cc1)c1ccc(N(CCI)CCI)cc1 | < 0.0667 h | – |
| CN(C(=O)OCc1ccc(NC(=O)N[C@@H](CCC(=O)O)C(=O)O)cc1)c1ccc(N(CCBr)CCBr)cc1 | < 0.0667 h | – |
| O=C(O)CC[C@H](NC(=O)Nc1ccc(N(CCCl)CCCl)c(Cl)c1)C(=O)O | < 0.283 h | – |
| O=C(O)CC[C@H](NC(=O)c1ccc(N(CCCl)CCCl)cc1)C(=O)O | – | fraction unbound [3]: 0.08 |
| CN(/N=N/c1ccc(C#N)cc1)C(=O)N[C@@H](CCC(=O)O)C(=O)O | 2.17 h | Km (Pseudomonas sp. [2]): 17.7 µM; Vmax (Pseudomonas sp. [2]): 4.94 µM/min; kcat (Pseudomonas sp. [2]): 4.64 s⁻¹; kcat/Km (Pseudomonas sp. [4]): 260000 M⁻¹ s⁻¹; T1/2 (Pseudomonas sp. [5]): 3.5 min |
| CCOC(=O)c1ccc(/N=N/N(C)C(=O)N[C@@H](CCC(=O)OC)C(=O)OC)cc1 | 102 h | – |
| O=C(O)CC[C@H](NC(=O)Nc1ccc(N(CCCl)CCCl)c(F)c1)C(=O)O | < 0.283 h | – |
| CC(=O)c1ccc(/N=N/N(C)C(=O)N[C@@H](CCC(=O)O)C(=O)O)cc1 | 0.0433 h | – |
| O=C(O)CC[C@H](NC(=O)Nc1ccc(COC(=O)Nc2ccc(N(CCI)CCI)cc2N(CCI)CCI)cc1)C(=O)O | < 0.0667 h | – |
| CCOC(=O)c1ccc(/N=N/N(C)C(=O)N[C@@H](CCC(=O)O)C(=O)O)cc1 | 2.89 h | Km (Pseudomonas sp. [2]): 2.73 µM; Vmax (Pseudomonas sp. [2]): 1.18 µM/min; kcat (Pseudomonas sp. [2]): 1.11 s⁻¹; kcat/Km (Pseudomonas sp. [4]): 410000 M⁻¹ s⁻¹; T1/2 (Pseudomonas sp. [5]): 5.7 min |
| CN(/N=N/c1ccc(Br)cc1)C(=O)N[C@@H](CCC(=O)O)C(=O)O | 3.66 h | Activity (Albumin): Active |
| O=C(O)CC[C@H](NC(=O)Nc1ccc(N(CCCl)CCCl)cc1)C(=O)O | 0.28 h | Km (Pseudomonas sp. [2]): 3 µM |
